Measured values as given in PubChem BioAssay (NCI).
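Interpolation was linear, between the two tested concentrations surrounding the appropriate level; five concentrations were tested over 48 hours in 96-well plates. GI50 = concentration required for 50% inhibition of growth. TGI: total growth inhibition.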

Key:
Test in all cases: inhibition of tumour cell growth, NCI panel, 48 h
HCT-15 colon = test system: HCT-15 colon
HT29 colon = test system: HT29 colon
CAKI-1 renal = test system: CAKI-1 renal
NCI-H226 lung = test system: NCI-H226 lung
PC-3 prostate = test system: PC-3 prostate
SK-MEL-2 melanoma = test system: SK-MEL-2 melanoma
NCI-H460 lung = test system: NCI-H460 lung
MCF7 breast = test system: MCF7 breast
NCI-H23 lung = test system: NCI-H23 lung
IGROV1 ovarian = test system: IGROV1 ovarian
T-47D breast = test system: T-47D breast
COLO 205 colon = test system: COLO 205 colon
ACHN renal = test system: ACHN renal
786-0 renal = test system: 786-0 renal
DU-145 prostate = test system: DU-145 prostate
K-562 leukemia = test system: K-562 leukemia
EKVX NSCLC = test system: EKVX NSCLC
SF-295 CNS = test system: SF-295 CNS
SNB-75 CNS = test system: SNB-75 CNS
MDA-MB-435 = test system: MDA-MB-435
LOX IMVI melanoma = test system: LOX IMVI melanoma
HOP-62 NSCLC = test system: HOP-62 NSCLC
OVCAR-4 ovarian = test system: OVCAR-4 ovarian
OVCAR-5 ovarian = test system: OVCAR-5 ovarian
KM12 colon = test system: KM12 colon
SK-MEL-5 melanoma = test system: SK-MEL-5 melanoma
HOP-92 NSCLC = test system: HOP-92 NSCLC
SF-539 CNS = test system: SF-539 CNS
RPMI-8226 leukemia = test system: RPMI-8226 leukemia
U251 CNS = test system: U251 CNS
HCT-116 colon = test system: HCT-116 colon
SK-OV-3 ovarian = test system: SK-OV-3 ovarian
SW-620 colon = test system: SW-620 colon
NCI-H522 lung = test system: NCI-H522 lung
CCRF-CEM leukemia = test system: CCRF-CEM leukemia
OVCAR-3 ovarian = test system: OVCAR-3 ovarian
NCI/ADR-RES ovarian = test system: NCI/ADR-RES ovarian
MDA-MB-231 breast = test system: MDA-MB-231 breast
MOLT-4 leukemia = test system: MOLT-4 leukemia
MALME-3M melanoma = test system: MALME-3M melanoma
SN12C renal = test system: SN12C renal
M14 melanoma = test system: M14 melanoma
UO-31 renal = test system: UO-31 renal
SNB-19 CNS = test system: SNB-19 CNS
SK-MEL-28 melanoma = test system: SK-MEL-28 melanoma
BT-549 breast = test system: BT-549 breast
SF-268 CNS = test system: SF-268 CNS
A498 renal = test system: A498 renal
UACC-62 melanoma = test system: UACC-62 melanoma
RXF 393 renal = test system: RXF 393 renal
HS 578T breast = test system: HS 578T breast
TK-10 renal = test system: TK-10 renal
OVCAR-8 ovarian = test system: OVCAR-8 ovarian
HCC-2998 colon = test system: HCC-2998 colon
UACC-257 melanoma = test system: UACC-257 melanoma
A549 NSCLC = test system: A549 NSCLC

With `CO[C@@H]1[C@H](O)CC[C@]2(CO2)[C@H]1[C@@]1(C)O[C@@H]1CC=C(C)C` the TGI (HCT-15 colon) was > 200 µM, the TGI (HT29 colon) was > 200 µM and the TGI (CAKI-1 renal) was > 200 µM. For the same molecule, the TGI (NCI-H226 lung) was > 200 µM, the TGI (PC-3 prostate) was > 200 µM and the TGI (SK-MEL-2 melanoma) was > 200 µM. For the same molecule, the TGI (NCI-H460 lung) was > 200 µM, the TGI (MCF7 breast) was > 200 µM and the TGI (NCI-H23 lung) was > 200 µM. For the same molecule, the TGI (IGROV1 ovarian) was > 200 µM, the TGI (T-47D breast) was > 200 µM and the TGI (COLO 205 colon) was > 200 µM. For the same molecule, the TGI (ACHN renal) was > 200 µM, the TGI (786-0 renal) was > 200 µM and the TGI (DU-145 prostate) was > 200 µM. For the same molecule, the TGI (K-562 leukemia) was > 200 µM, the TGI (EKVX NSCLC) was > 200 µM and the TGI (SF-295 CNS) was > 200 µM. For the same molecule, the TGI (SNB-75 CNS) was > 200 µM, the TGI (MDA-MB-435) was > 200 µM and the TGI (LOX IMVI melanoma) was > 200 µM. The TGI (HOP-62 NSCLC) was > 200 µM, the TGI (OVCAR-4 ovarian) was > 200 µM and the TGI (OVCAR-5 ovarian) was > 200 µM. For the same molecule, the TGI (KM12 colon) was > 200 µM, the TGI (SK-MEL-5 melanoma) was > 200 µM and the TGI (HOP-92 NSCLC) was > 200 µM. The TGI (SF-539 CNS) was > 200 µM, the TGI (RPMI-8226 leukemia) was > 200 µM and the TGI (U251 CNS) was > 200 µM. The TGI (HCT-116 colon) was > 200 µM, the TGI (SK-OV-3 ovarian) was > 200 µM and the TGI (SW-620 colon) was > 200 µM. The TGI (NCI-H522 lung) was > 200 µM, the TGI (CCRF-CEM leukemia) was > 200 µM and the TGI (OVCAR-3 ovarian) was > 200 µM. For the same molecule, the TGI (NCI/ADR-RES ovarian) was > 200 µM, the TGI (MDA-MB-231 breast) was > 200 µM and the TGI (MOLT-4 leukemia) was > 200 µM. The TGI (MALME-3M melanoma) was > 200 µM, the TGI (SN12C renal) was > 200 µM and the TGI (M14 melanoma) was > 200 µM. The TGI (UO-31 renal) was > 200 µM, the TGI (SNB-19 CNS) was > 200 µM and the TGI (SK-MEL-28 melanoma) was > 200 µM. The TGI (BT-549 breast) was > 200 µM, the TGI (SF-268 CNS) was > 200 µM and the TGI (A498 renal) was > 200 µM. The TGI (UACC-62 melanoma) was > 200 µM, the TGI (RXF 393 renal) was > 200 µM and the TGI (HS 578T breast) was > 200 µM. For the same molecule, the TGI (TK-10 renal) was > 200 µM.
For `O=C1CS/C(=N/S(=O)(=O)c2ccc(N3N=C4c5ccccc5CC4C3c3cccs3)cc2)N(c2ccccc2)C1` (stereo not drawn), the GI50 (HCT-15 colon) was 35.5 µM, the TGI (HCT-15 colon) was > 100 µM and the GI50 (HT29 colon) was 61 µM. For the same molecule, the TGI (HT29 colon) was > 100 µM, the GI50 (CAKI-1 renal) was 74.5 µM and the TGI (CAKI-1 renal) was > 100 µM. It also gave a GI50 (NCI-H226 lung) of 22.3 µM, a TGI (NCI-H226 lung) of 93.8 µM and a GI50 (PC-3 prostate) of 45 µM. The TGI (PC-3 prostate) was > 100 µM, the GI50 (SK-MEL-2 melanoma) was 60.2 µM and the TGI (SK-MEL-2 melanoma) was > 100 µM. The GI50 (NCI-H460 lung) was > 100 µM, the TGI (NCI-H460 lung) was > 100 µM and the GI50 (MCF7 breast) was 88.8 µM. The TGI (MCF7 breast) was > 100 µM, the GI50 (NCI-H23 lung) was 24.2 µM and the TGI (NCI-H23 lung) was 63.5 µM. For the same molecule, the GI50 (IGROV1 ovarian) was 19.5 µM, the TGI (IGROV1 ovarian) was > 100 µM and the GI50 (T-47D breast) was 69.2 µM. The TGI (T-47D breast) was > 100 µM, the GI50 (COLO 205 colon) was 57.2 µM and the TGI (COLO 205 colon) was > 100 µM. It also gave a GI50 (ACHN renal) of 22.1 µM, a TGI (ACHN renal) of 78.7 µM and a GI50 (786-0 renal) of 22.1 µM. For the same molecule, the TGI (786-0 renal) was > 100 µM, the GI50 (DU-145 prostate) was 30.7 µM and the TGI (DU-145 prostate) was > 100 µM. It also gave a GI50 (K-562 leukemia) of 10.3 µM, a TGI (K-562 leukemia) of 93.5 µM and a GI50 (EKVX NSCLC) of 39.5 µM. For the same molecule, the TGI (EKVX NSCLC) was > 100 µM, the GI50 (SF-295 CNS) was 32.7 µM and the TGI (SF-295 CNS) was > 100 µM. The GI50 (SNB-75 CNS) was > 100 µM, the TGI (SNB-75 CNS) was > 100 µM and the GI50 (MDA-MB-435) was 29.5 µM. For the same molecule, the TGI (MDA-MB-435) was > 100 µM, the GI50 (LOX IMVI melanoma) was 21.2 µM and the TGI (LOX IMVI melanoma) was 51 µM. For the same molecule, the GI50 (HOP-62 NSCLC) was 17.4 µM, the TGI (HOP-62 NSCLC) was 49.2 µM and the GI50 (OVCAR-4 ovarian) was > 100 µM. For the same molecule, the TGI (OVCAR-4 ovarian) was > 100 µM, the GI50 (OVCAR-5 ovarian) was 34.6 µM and the TGI (OVCAR-5 ovarian) was > 100 µM. It also gave a GI50 (KM12 colon) of 28.4 µM, a TGI (KM12 colon) of 88.4 µM and a GI50 (SK-MEL-5 melanoma) of 38.2 µM. For the same molecule, the TGI (SK-MEL-5 melanoma) was > 100 µM, the GI50 (HOP-92 NSCLC) was 79.9 µM and the TGI (HOP-92 NSCLC) was > 100 µM. It also gave a GI50 (SF-539 CNS) of 27.8 µM, a TGI (SF-539 CNS) of 99.2 µM and a GI50 (RPMI-8226 leukemia) of 31 µM. For the same molecule, the TGI (RPMI-8226 leukemia) was > 100 µM, the GI50 (U251 CNS) was 28 µM and the TGI (U251 CNS) was > 100 µM. For the same molecule, the GI50 (HCT-116 colon) was 12.5 µM, the TGI (HCT-116 colon) was 27.4 µM and the GI50 (OVCAR-8 ovarian) was 25.4 µM. For the same molecule, the TGI (OVCAR-8 ovarian) was > 100 µM, the GI50 (SK-OV-3 ovarian) was > 100 µM and the TGI (SK-OV-3 ovarian) was > 100 µM. It also gave a GI50 (HCC-2998 colon) of 20.5 µM, a TGI (HCC-2998 colon) of 48.5 µM and a GI50 (SW-620 colon) of 45.2 µM. The TGI (SW-620 colon) was > 100 µM, the GI50 (UACC-257 melanoma) was 42.3 µM and the TGI (UACC-257 melanoma) was > 100 µM. The GI50 (NCI-H522 lung) was 23.8 µM, the TGI (NCI-H522 lung) was > 100 µM and the GI50 (CCRF-CEM leukemia) was 36.8 µM. The TGI (CCRF-CEM leukemia) was > 100 µM, the GI50 (OVCAR-3 ovarian) was > 100 µM and the TGI (OVCAR-3 ovarian) was > 100 µM. For the same molecule, the GI50 (NCI/ADR-RES ovarian) was > 100 µM, the TGI (NCI/ADR-RES ovarian) was > 100 µM and the GI50 (MDA-MB-231 breast) was 21.4 µM. It also gave a TGI (MDA-MB-231 breast) of 84.8 µM, a GI50 (MOLT-4 leukemia) of 0.0146 µM and a TGI (MOLT-4 leukemia) of 34.8 µM. For the same molecule, the GI50 (SN12C renal) was 34.3 µM, the TGI (SN12C renal) was > 100 µM and the GI50 (M14 melanoma) was 39.1 µM. For the same molecule, the TGI (M14 melanoma) was > 100 µM, the GI50 (UO-31 renal) was 69.3 µM and the TGI (UO-31 renal) was > 100 µM. The GI50 (SNB-19 CNS) was 55.7 µM, the TGI (SNB-19 CNS) was > 100 µM and the GI50 (SK-MEL-28 melanoma) was > 100 µM. For the same molecule, the TGI (SK-MEL-28 melanoma) was > 100 µM, the GI50 (BT-549 breast) was 21.4 µM and the TGI (BT-549 breast) was > 100 µM. The GI50 (SF-268 CNS) was > 100 µM, the TGI (SF-268 CNS) was > 100 µM and the GI50 (UACC-62 melanoma) was 16.1 µM. For the same molecule, the TGI (UACC-62 melanoma) was 38.9 µM, the GI50 (RXF 393 renal) was 41 µM and the TGI (RXF 393 renal) was > 100 µM. For the same molecule, the GI50 (A549 NSCLC) was 47.2 µM, the TGI (A549 NSCLC) was > 100 µM and the GI50 (HS 578T breast) was 20.5 µM. The TGI (HS 578T breast) was 83.7 µM.
